According to patent publication US8293212B2, “Inhibitor screening method and atopic dermatitis like symptom inducing method which utilizes induction of production of interleukin 18 by keratinocyte and utilization of same” (Japan Science & Technology Agency, priority 2003, dated 2012):
Where a SMILES comes first, the peptide text is derived from it. The star is where a group is joined. Cbz = O=C(OCc1ccccc1)*; CH2F = FC*

How the values were obtained:
[1] = system: KC of wild-type mice stimulated with SpA; experiment: Effect of caspase inhibitors on IL-18 secretion from SpA-stimulated KC; type: cell-based, mouse; conditions: 20 μM inhibitor, 500 μg/ml SpA, 24 hours (FIG. 7C)
Description: (§1) KC (5×10^5/ml) or PAM212 cells (2×10^5/ml) were incubated with a variety of doses of SpA and 1 μg/ml LPS or mFasL (1×10^6/ml) for 24 hours. In some examples, KC of wild-type mice were incubated with 100 μg/ml SpA in the presence of 20 μM of ZVAD or YVAD for 24 hours. IL-18 concentration and its activity in each supernatant were determined by ELISA and bioassay respectively. In some examples, KC were incubated with 500 μg/ml SpA for 4 hours, and total RNA was extracted, followed by RT-PCR (see Tsutsui, H., Matsui, K., Kawada, N., Hyodo, Y., Hayashi, N., Okamura, H., Higashino, K. and Nakanishi, K. 1997. IL-18 accounts for both TNF-α and Fas ligand-mediated hepatotoxic pathways in endotoxin-induced liver injury in mice. J. Immunol. 159:3961). As to primers for IL-18, IL-12p35, IL-12p40, or β-actin, and PCR conditions for individual cytokines, see the Tsutsui et al.
To be specific, KC were prepared from wild-type mice, caspase-1-deficient mice, TLR2-deficient mice, or MyD88-deficient mice. The KC of the wild-type mice were incubated with 500 μg/ml SpA in the presence of 20μ MZVAD, 20 μM YVAD, or the same volume of DMSO(Veh) for 24 hours. On the other hand, KC from each of the mutants were incubated with 500 μg/ml SpA for 24 hours. IL-18 in each supernatant was measured by ELISA. The result is illustrated in FIG. 7C. […]

Kupffer cells [2] = conditions: secretion caused by LPS or membrane-bound Fas ligand stimulation; stated as background; cited from earlier work
[3] = system: KC from wild-type B6 mice; experiment: IL-18 secretion from newly isolated KC after stimulation, ELISA of supernatant; type: cell-based, mouse
Description: (§2) Concentration of IL-18 was determined by an ELISA kit manufactured by MBL. IL-4, IFN-γ, and IL-1β were determined by an ELISA kit manufactured by Genzyme. An ELISA kit for IL-5 was purchased from Endogen. IgE serum level was determined by an ELISA kit manufactured by pharMingen. IFN-γ induction ability of IL-18 was determined by bioassay using clones of IL-18-responsive mouse NK cells (see Non-Patent Document 6 and others)
In order to delete DC, KC were incubated with CD11c microbeads (manufactured by Miltenyi Biotec), and then CD 11c^+ cells were depleted using an AutoMACS™ separator.
as §1, with “al. […]” for “al.”
To be specific, KC or CD11c^+ cell-depleted KC prepared from skin of wild-type B6 mice were analyzed for their expression of CD11c and MHC class II (1-A^b) by flow cytometry. These cells were incubated with or without SpA for 24 hours, and concentration of IL-18 in the resulting supernatant was measured by ELISA. […]
Further, because Kupffer cells secrete IL-18 in response to stimulation with LPS or membrane-bound Fas ligand, it was examined whether these stimuli induce IL-18 secretion from KC. […] IL-18 contained in each resulting supernatant was measured by ELISA.

PAM212 cells = experiment: IL-18 secretion and IFN-γ-inducing bioactivity of IL-18 from PAM212 cells incubated with SpA; type: cell-based, mouse; conditions: PAM212 cells incubated with SpA 24 hours (FIG. 7A)
Description: as §2
To be specific, LNK5E6 cells, having higher responsiveness to stimulation with IL-18 in terms of IFN-γ production than LNK5E3 cells (see Non-Patent Document 6), were incubated with a variety of samples and 100 pg/ml IL-12, in the presence or absence of anti-IL-18 antibody (50 μg/ml), for 48 hours. […]
KC (5×10^5/ml) or PAM212 cells (2×10^5/ml) were incubated with a variety of doses of SpA and 1 μg/ml LPS or mFasL (1×10^6/ml) for 24 hours. […] IL-18 concentration and its activity in each supernatant were determined by ELISA and bioassay respectively. […]
To be specific, PAM212 cells (culture strain of KC of mice) were incubated with or without SpA for 24 hours, and the IL-18 concentration and IFN-γ-inducing bioactivity of IL-18 in each supernatant were determined by ELISA and bioassay respectively. […] ND stands for “not detected”.

normal B6 mice = experiment: Application of SpA on ear skin of normal B6 mice, serum IL-18/IgE and Th1/Th2 differentiation; type: in vivo, mouse
Description: Splenic CD4^+ T cells were isolated from variously treated mice using an AutoMACS™ separator (manufactured by Miltenyi Biotec). The newly isolated spleen cells were incubated with anti-CD4 beads (manufactured by Miltenyi Biotec). The purity of the CD4^+ T cells was more than 98%. The cells (1×10^6/ml) were incubated with immobilized anti-CD3ε (manufactured by PharMingen) for 48 hours. Concentrations of IFN-γ and IL-4 in each supernatant were determined by ELISA.
as §2
Solutions made by dissolving various doses of SpA in 5 μl vehicle (50% glycerol in PBS) were prepared, and the SpA solutions were applied on ear skin of wild-type mice for 14 days. For the control study, 5 μl vehicle without SpA was used. One mouse was caged to avoid effects from other mice.
To be specific, various amounts of SpA or only vehicles were applied on ear skin of normal B6 mice once a day for two weeks. After that, on day 14, serum and spleens were sampled so as to measure concentration of IL-18 or IgE. Further, splenic CD4^+ T cells from mice on which vehicle or SpA(100 μg/day) was applied were incubated with plate-bound anti-CD3 for 48 hours, and concentrations of IFN-γ and IL-4 in each supernatant were measured by ELISA. The results of the measurements are illustrated in FIGS. 6A through 6C.

KC of wild-type B6 mice = experiment: IL-12 expression (RT-PCR) and IL-12 secretion (ELISA) in SpA-stimulated KC; type: cell-based, mouse
Description: as §1
Next, it was examined whether SpA-stimulated KC secretes IL-12 as well as IL-18. In order to detect a small amount of IL-12, total RNA were obtained from KC that had been incubated with SpA for 4 hours, and RT-PCR was performed using the RNA. […] Expression level of mRNA of IL-18, IL-12p40, IL-12p35, and β-actin out of all extracted RNA were measured by RT-PCR. […]

Kupffer cells [4] = experiment: Cytokine expression and secretion of Kupffer cells after stimulation; type: cell-based, mouse; conditions: in response to SpA, data not shown
Description: Kupffer cells were prepared according to Non-Patent Document 6. Kupffer cells (1×10^6/ml) were incubated with 1 μg/ml LPS (lypopolysaccharide) for 4 hours, and their IL-18, IL-12p35, IL-12p40 and β-actin expressions were determined as mRNA levels by RT-PCR.
Next, it was examined whether SpA-stimulated KC secretes IL-12 as well as IL-18. In order to detect a small amount of IL-12, total RNA were obtained from KC that had been incubated with SpA for 4 hours, and RT-PCR was performed using the RNA. To be specific, KC and Kupffer cells of wild-type B6 mice were separately incubated in the presence/absence of 500 μg/ml SpA, and in the presence/absence of 1 μg/ml LPS for 4 hours. Expression level of mRNA of IL-18, IL-12p40, IL-12p35, and β-actin out of all extracted RNA were measured by RT-PCR. The result of the measurement is illustrated in FIG. 7D.

NC/Nga mice = experiment: Induction of AD-like skin lesion by application on shaven backs of NC/Nga mice; type: in vivo, mouse; conditions: 4% of SDS, SpA 200 μg/day, alone or as mixture

Compound: COC(=O)C[C@H](NC(=O)[C@H](C)NC(=O)[C@@H](NC(=O)OCc1ccccc1)C(C)C)C(=O)CF [ZVAD, Z-VAD-FMK] (Cbz-Val-Ala-Asp(OMe)-CH2F)
- inhibition of secretion of IL-18 from SpA-stimulated KC [1]: did not inhibit
- inhibition of IL-18 secretion from Kupffer cells (Kupffer cells [2]): strongly inhibit

Compound: CC(=O)N[C@@H](Cc1ccc(O)cc1)C(=O)N[C@H](C(=O)N[C@@H](C)C(=O)N[C@@H](CC(=O)O)C(=O)CCl)C(C)C [YVAD, Ac-YCAD-CMK]
- inhibition of secretion of IL-18 from SpA-stimulated KC [1]: did not inhibit
- inhibition of IL-18 secretion from Kupffer cells (Kupffer cells [2]): strongly inhibit

Compound: SpA: protein A purified from Staphylococcus aureus Cowan 1, purchased from Calbiochem
- IL-18 produced by KC ([3]; 500 μg/ml SpA without adding DMSO, 24 hours (FIG. 7C)): 28.4 ± 3.5 pg/mL
- IL-18 in supernatant ([3]; KC 5×10^5/ml, 24 hours, 500 μg/ml SpA, 1 μg/ml LPS or 1×10^6/ml mFasL, ND = not detected): 31.5 ± 3.2 pg/mL
- IL-18 release from newly isolated KC in response to SpA ([3]; various amounts of SpA, 24 hours (FIG. 7B)): released IL-18 in a dose-dependent manner
- secretion of activated IL-18 (ELISA and IFN-γ-inducing bioassay) (PAM212 cells): secreted activated IL-18
- Th1/Th2 differentiation of splenic CD4+ T cells (IFN-γ and IL-4) (normal B6 mice; SpA 100 μg/day, anti-CD3 48 hours (FIG. 6C)): did not show preferential differentiation of Th2 cells
- IL-12p40 and IL-12p70 in sera (ELISA) (normal B6 mice; data not shown): not detected
- serum levels of IL-18 (normal B6 mice; ear skin, once a day for two weeks, day 14 (FIG. 6A)): increased
- serum IgE levels (normal B6 mice; ear skin, once a day for two weeks, day 14 (FIG. 6B)): increased in a dose-dependent manner
- IL-12p35 and IL-12p40 mRNA expression (RT-PCR) (KC of wild-type B6 mice; 500 μg/ml SpA, 4 hours (FIG. 7D)): neither IL-12p35 nor IL-12p40 were detected
- IL-12p40 or IL-12p70 in supernatant (ELISA) (KC of wild-type B6 mice; 24-hour incubation, data not shown): not detected
- secretion of IL-12 or IL-18 from Kupffer cells (Kupffer cells [4]): did not secrete IL-12 or IL-18
- development of AD / skin lesion like AD (NC/Nga mice): do not develop AD
